Patent publication US9995734B2, “Human T cell line assay for evaluating the immunologic identity of glatiramer acetate preparations” (Mylan Inc., priority 2013, dated 2018)

Key:
Assay type in all cases: cell-based, human
[1] = test system: Donor 6 GMA-Reactive T-Cell Lines; assay: ATP proliferation assay, Donor 6 GMA-reactive T-cell lines; details: Day 35, GMA Lot 001 and COP 10 μg/mL
GA-specific T-cell lines = details: concentrations approaching and exceeding 10 μg/mL; data not shown
Description: GA-specific T-cell lines from Donors 1 and 3 were tested for proliferation in response to stimulation with peptide GL 14, poly (Glu-Lys 1:4).

[2] = test system: Donor 3 COP T-cell lines (165-B6C, 165-C7C, 165-D3C, 165-F3C, 165-F6C); assay: MHC DR restriction testing (ATP proliferation with autologous and partially HLA-DR matched APC), Donor 3 COP T-cell lines; details: 20 μg/mL
Description: MHC DR restriction testing of cell lines was carried out by measuring the proliferation response of the cell lines as described above in the presence of an array of APC selected based on the known HLA-DR loci of the original PBMC donor for the cell line tested, including autologous APC (B-LCL). The donors used are described in Table 2.
To define the MHC molecule used to present antigen to GA specific T cell lines, GA specific responses were measured in the presence of autologous APC and in the presence of APC matching one of the T cell donor's HLA-DR alleles. Therefore at least 3 APC were used in each experiment: autologous APC, APC matching DR allele 1 but not allele 2 and a third APC matching allele 2 but not allele 1. In some experiments a fourth APC B-LCL was used. A no antigen negative control was used. APC were inactivated by incubation with 50 ug/mL mitomycin C. Following inactivation, cells were washed three times to remove mitomycin C and suspended in X-VIVO 15 medium at 1×10^6 cells per mL. GA was added to the cell suspension to a final concentration of 20-60 μg/mL. The cells were incubated with antigen for 1 hour at 37° C. to allow antigen uptake and binding. The cell suspension was then centrifuged to pellet the cells and the cell pellet was washed once with medium. APC were adjusted to 2×10^5 cells per mL in X-VIVO 15 medium and added to opaque 96-well plates at 100 μL per well. T-cell suspensions of 2-4×10^5 cells per mL (unless otherwise specified) were added to the 96-well plates at 100 μL per well and the cultures incubated 4 days before measuring cell numbers using CellTiter Glo® (to evaluate proliferation).
Alternatively, APC were not pulsed. Instead, each well contained 10 ug/mL antigen, 50 μl APC and 100 μL of T cells.
After incubating for 4 days at 37° C. (5% CO2), 100 μL were removed from each well, combined with 100 μL CellTiterGlo reagent, and luminescence was measured using a Packard Fusion. Results were expressed in relative light units (RLU).
As described in the Methods, T-cell lines were tested for MHC restriction by measuring proliferation following incubation with APC. Mitomycin-treated autologous APC, and test APC, e.g., from donors having at least one HLA-DR match with the original PBMC donor were employed. The values in the data tables below are in RLU.
Donor 3 T-cell line 165-B6C was assayed for proliferation, using mitomycin-treated APC from Donors 3, 5, and 6 that had been incubated in the presence or the absence of 20 μg/mL COP. T-cell line 165-B6C had been restimulated six times (not including the initial stimulation) with antigen before the MHC restriction assay was carried out. The data, shown in Table 68 and FIG. 12A, indicate that […] is restricted by HLA-DRβ1*11.
Donor 3 T-cell line 165-C7C was assayed for proliferation, using mitomycin-treated APC from Donors 3, 5, and 6 that had been incubated in the presence or the absence of 20 μg/mL COP. T-cell line 165-C7C had been restimulated five times (not including the initial stimulation) with antigen before the MHC restriction assay was carried out. The data, shown in Table 69 and FIG. 12B, indicate that […] is restricted by HLA-DRβ1*11.
T-cell line 165-D3C had been restimulated six times (not including the initial stimulation) with antigen before the MHC restriction assay was carried out. The data, shown in Table 70 and FIG. 13A, indicate that 165-D3Cis restricted by HLA-DRβ1*1501.
T-cell line 165-F3C had been restimulated eight times (not including the initial stimulation) with antigen before the MHC restriction assay was carried out. The data, shown in Table 71 and FIG. 13B, indicate that 165-F3C is restricted by HLA-DRβ1*11.
Donor 3 T-cell line 165-F6C was assayed for proliferation, using mitomycin-treated APC from Donors 3, 5, and 6 that had been incubated in the presence or the absence of 20 μg/mL COP. […]

## glatiramer acetate [COP]
[1]; Cell line 224-B6-001
  ATP proliferation assay: 78357 RLU
[1]; Cell line 224-B7-001
  ATP proliferation assay: 20586 RLU
[1]; Cell line 224-B11-001
  ATP proliferation assay: 27861 RLU
[1]; Cell line 224-C4-001
  ATP proliferation assay: 52771 RLU
[1]; Cell line 224-C11-001
  ATP proliferation assay: 87933 RLU
[1]; Cell line 224-D2-001
  ATP proliferation assay: 26027 RLU
[1]; Cell line 224-D6-001
  ATP proliferation assay: 68767 RLU
[1]; Cell line 224-E2-001
  ATP proliferation assay: 233094 RLU
[1]; Cell line 224-E7-001
  ATP proliferation assay: 137556 RLU
[1]; Cell line 224-F4-001
  ATP proliferation assay: 114667 RLU
[1]; Cell line 224-G2-001
  ATP proliferation assay: 227257 RLU
[1]; Cell line 224-G10-001
  ATP proliferation assay: 229933 RLU
[1]; Cell line 224-G11-001
  ATP proliferation assay: 91466 RLU

## poly (Glu-Lys; 1:4) [GL 14]
GA-specific T-cell lines
  cell death: causes cell death

## glatiramer acetate [GMA]
[2]; T-cell line 165-B6C, B-LCL Donor 3 (Autologous) DRβ1*1501/DRβ1*11
  Proliferation with antigen-incubated APC: 2237 RLU
[2]; T-cell line 165-B6C, B-LCL Donor 5 DRβ1*01/DRβ1*11
  Proliferation with antigen-incubated APC: 8944 RLU
[2]; T-cell line 165-B6C, B-LCL Donor 6 DRβ1*1501/DRβ1*13
  Proliferation with antigen-incubated APC: 322 RLU
[2]; T-cell line 165-C7C, B-LCL Donor 3 (Autologous) DRβ1*1501/DRβ1*11
  Proliferation with antigen-incubated APC: 13714 RLU
[2]; T-cell line 165-C7C, B-LCL Donor 5 DRβ1*01/DRβ1*11
  Proliferation with antigen-incubated APC: 94535 RLU
[2]; T-cell line 165-C7C, B-LCL Donor 6 DRβ1*1501/DRβ1*13
  Proliferation with antigen-incubated APC: 1189 RLU
[2]; T-cell line 165-D3C, B-LCL Donor 3 (Autologous) DRβ1*1501/DRβ1*11
  Proliferation with antigen-incubated APC: 106840 RLU
[2]; T-cell line 165-D3C, B-LCL Donor 5 DRβ1*01/DRβ1*11
  Proliferation with antigen-incubated APC: 12173 RLU
[2]; T-cell line 165-D3C, B-LCL Donor 7 DRβ1*1501/DRβ1*03
  Proliferation with antigen-incubated APC: 149506 RLU
[2]; T-cell line 165-F3C, B-LCL Donor 3 (Autologous) DRβ1*1501/DRβ1*11
  Proliferation with antigen-incubated APC: 45559 RLU
[2]; T-cell line 165-F3C, B-LCL Donor 5 DRβ1*01/DRβ1*11
  Proliferation with antigen-incubated APC: 39565 RLU
[2]; T-cell line 165-F3C, B-LCL Donor 6 DRβ1*1501/DRβ1*3
  Proliferation with antigen-incubated APC: 7869 RLU
[2]; T-cell line 165-F6C, B-LCL Donor 3 (Autologous) DRβ1*1501/DRβ1*11
  Proliferation with antigen-incubated APC: 12562 RLU
[2]; T-cell line 165-F6C, B-LCL Donor 5 DRβ1*01/DRβ1*11
  Proliferation with antigen-incubated APC: 3142 RLU
[2]; T-cell line 165-F6C, B-LCL Donor 6 DRβ1*1501/DRβ1*13
  Proliferation with antigen-incubated APC: 30293 RLU
